Results published in ChEMBL document CHEMBL1128477, “5,7-dihydro-3-[2-[1-(phenylmethyl)-4-piperidinyl]ethyl]-6H- pyrrolo[3,2-f]-1,2-benzisoxazol-6-one: a potent and centrally-selective inhibitor of acetylcholinesterase with an improved margin of safety” (J Med Chem, 1995).
pIC50: −log10 of the molar value.

Assays:
[1] = Safety index is the ratio of acute lethality LD50 to extracellular AchE ED50.; format: toxicity; conditions: read-out: Safety index
Rattus norvegicus [2] = species: Rattus norvegicus; experiment: animal or person
Description: ED50 for salivation was defined as the dose required to produce a level 2 rating on a 0-4 point scale after treatment.

Acetylcholinesterase = Acetylcholinesterase (Homo sapiens, UniProt P22303)
Description: In vitro inhibition of Acetylcholinesterase from human erythrocytes

Rattus norvegicus [3] = species: Rattus norvegicus; experiment: animal or person; conditions: 3 h
Cholinesterase = Cholinesterase (Homo sapiens, UniProt P06276)
Sequence of Cholinesterase (P06276 whole entry): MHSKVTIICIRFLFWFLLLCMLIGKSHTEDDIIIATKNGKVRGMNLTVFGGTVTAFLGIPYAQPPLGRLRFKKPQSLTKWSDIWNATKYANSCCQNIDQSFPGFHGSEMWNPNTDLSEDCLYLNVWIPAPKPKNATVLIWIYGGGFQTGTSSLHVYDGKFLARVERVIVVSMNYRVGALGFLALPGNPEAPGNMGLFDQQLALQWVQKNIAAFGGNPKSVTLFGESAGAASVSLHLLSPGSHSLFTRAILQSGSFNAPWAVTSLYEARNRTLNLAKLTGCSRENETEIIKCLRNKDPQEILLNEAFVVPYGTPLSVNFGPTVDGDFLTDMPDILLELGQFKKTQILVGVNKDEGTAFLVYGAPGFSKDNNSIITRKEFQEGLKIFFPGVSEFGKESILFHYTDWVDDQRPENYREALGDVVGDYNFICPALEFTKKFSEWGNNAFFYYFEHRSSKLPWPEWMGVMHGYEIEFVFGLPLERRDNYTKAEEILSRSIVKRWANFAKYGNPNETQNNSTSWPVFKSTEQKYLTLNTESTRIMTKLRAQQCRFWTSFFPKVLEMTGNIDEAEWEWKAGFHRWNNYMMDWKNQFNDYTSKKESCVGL
Description: In vitro inhibition of Butyrylcholinesterase from human erythrocytes

Sequence of Acetylcholinesterase (P22303 whole entry): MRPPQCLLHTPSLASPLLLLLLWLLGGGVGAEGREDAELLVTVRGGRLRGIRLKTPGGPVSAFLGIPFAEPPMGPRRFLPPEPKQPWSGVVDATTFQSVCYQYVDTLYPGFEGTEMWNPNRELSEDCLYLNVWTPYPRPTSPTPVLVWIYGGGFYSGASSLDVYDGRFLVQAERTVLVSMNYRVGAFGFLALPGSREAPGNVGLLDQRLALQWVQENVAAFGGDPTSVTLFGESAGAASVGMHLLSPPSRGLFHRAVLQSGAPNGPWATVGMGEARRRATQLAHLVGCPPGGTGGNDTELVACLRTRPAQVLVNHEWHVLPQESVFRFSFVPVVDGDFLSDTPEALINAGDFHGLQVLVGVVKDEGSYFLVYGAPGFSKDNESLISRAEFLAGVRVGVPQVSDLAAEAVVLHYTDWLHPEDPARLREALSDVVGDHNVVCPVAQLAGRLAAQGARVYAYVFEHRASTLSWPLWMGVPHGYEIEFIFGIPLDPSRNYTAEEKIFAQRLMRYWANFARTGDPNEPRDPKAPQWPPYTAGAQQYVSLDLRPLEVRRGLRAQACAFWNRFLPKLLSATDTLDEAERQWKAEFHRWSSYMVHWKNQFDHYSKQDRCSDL
Description for in vivo: LD50 for actute lethality is defined as the dose that resulted in the death of 50% of the animals 1 hr after treatment.

Row | Compound | selectivity ratio [1] | ED50 (Rattus norvegicus [2]) | pIC50 (Acetylcholinesterase) | ED50 (Rattus norvegicus [3]) | LD50 at 1 h (in vivo) | pIC50 (Cholinesterase)
1 | O=C(O)/C=C\C(=O)O.O=C1Cc2cc3c(CCC4CCN(Cc5ccccc5)CC4)noc3cc2N1 [ICOPEZIL MALEATE] | 105 | 26 mg/kg | 9.48 | 0.4 mg/kg | 42 mg/kg | 5.14
2 | CN1C(=O)Cc2cc3c(CCC4CCN(Cc5ccccc5)CC4)noc3cc21 |  |  | 9.32 |  |  | 5.35
3 | O=C1Cc2cc3onc(CCC4CCN(Cc5ccccc5)CC4)c3cc2N1 |  |  | 9.02 |  |  | 5.41
4 | O=C1Cc2c(ccc3c(CCC4CCN(Cc5ccccc5)CC4)noc23)N1 |  |  | 8.44 |  |  | 5.66
5 | O=C1CCc2cc3c(CCC4CCN(Cc5ccccc5)CC4)noc3cc2N1 |  |  | 9.24 |  |  | 5.40
6 | CC(=O)Nc1ccc2c(CCC3CCN(Cc4ccccc4)CC3)noc2c1 |  |  |  |  |  | 5.05
